# Test results: patent US20140179681A1, “METHODS AND COMPOSITIONS OF TARGETED DRUG DEVELOPMENT” (priority 2010, published 2014)
# Counter-ions that a name gives are not always drawn. Like-named read-outs stand apart in the source and are kept apart here.
# Legend:
# [1] = system: epithelial carcinoma A431 cell line; experiment: MTT Cell Proliferation Assay, A431 cells; type: cell-based; settings: for IC50: Homo sapiens; for MTT Assay IC50(A431/MDBK): ratio in parentheses: ratio MDBK IC50 / A431 IC50 (selectivity)
# Text: (§1) The following example describes the MTT Cell Proliferation Assay.
# (§2) The MTT Cell Proliferation Assay is a colorimetric assay system that measures the reduction of the tetrazolium salt MTT (3-(4,5-dimethylthiazol-2-yl)-2,5-diphenyltetrazolium bromide) into insoluble formazan crystals, produced by the mitochondria of viable cells. […] The color can then be quantified by spectrophotometric means. Among the applications for the method are drug sensitivity, cytotoxicity, response to growth factors, and cell activation. The reduction of tetrazolium salts is now recognized as a safe, accurate alternative to radiometric testing.
# (§3) Two replicates on each cell plate and 2 duplicate plates gave 4 individual replicates of each concentration, in each cell line. Concentrations were diluted in 100% DMSO from 25 mM stocks.
# (§4) Twelve 96 well plates of each cell line were plated. Plating was done by dislodging cells as in passage protocol, counting on a hemocytometer, re-suspending in standard growth media, and plating using a multichannel pippetor.
# (§5) 16 μl of 25 mM stock+34 μl DMSO=8 mM starting concentrations, and serial diluted as with test compounds in same plate. […] Two replicates of each concentrations was run on each cell plate. All compound addition and cell treatments were done using aseptic technique under a laminar flow aseptic hood.
# (§6) Control: 0.5% DMSO in treatment media was used as the control.
# (§7) MTT dye (Thiazolyl Blue Tetrazolium Bromide, Sigma cat #M5655) stock was prepared in bulk and stored at 4° C. for use: 5 mgs/ml sterile PDS, shielded from light. 4 ul of this stock per 100 uls treatment media per well was used.
# (§8) Plates were incubated overnight prior to treatment, with treatment day=Day 0. Compound treatments were prepared prior to washing cells to minimize time cells were dry at room temperature after final aspiration. Compounds were diluted in 100% DMSO in 96 well polypropylene plates: 40 μl 25 mM stock+10 μl DMSO=20 mM; 20 μl of 20 mM+30 μl DMSO=8 mM; 20 μl of 8 mM+30 μl DMSO=3.2 mM; 20 μl of 3.2 mM+30 μl DMSO=1.3 mM; 20 μl of 1.3 mM+30 μl DMSO=0.51 mM.
# (§9) 5.0 μl/ml were added to treatment media, in sterile, 2.2 ml deep well plates=0.5% dmso final. Ten μl of each dmso concentration was added to 2.0 ml of treatment media and then mixed using a 1200 μl multichannel pipettor. Cell plates were treated from the deep well plates. Treatment media was standard growth media containing 0.5% FBS and standard additions. This reduced FBS concentration allowed for a slower growth rate in cells.
# (§10) Media was aspirated from cell plates, and washed with 200 μl/well sterile PBS. Aspirated PBS wash, and cell plates were treated with 200 μl of compound/treatment media per well, and incubated at 37° C., 5% CO2 for 3 days.
# (§11) Prior to harvesting, visual observations were made under an inverted microscope. Plates were harvested by: aspirating the growth media; adding back MTT dye/100 μl treatment media; and incubating plates at 37° C. for 1 hour. MTT dye was aspirated. 100 μl/well dmso was added, and then shaken on a Bellco plate shaker for 5 minutes, at 4.5 setting.
# (§12) Plates were read in a Tecan Sunrize UV plate reader, at 560 nm. Settings: Read mode, Outside Normal 2 sec; Shake settle time 3 sec. Data is reported as % inhibition, calculated for individual plates using control values from that plate.
# EGFR = biological target: T1, EGFR (Homo sapiens, UniProt P00533); experiment: EGFR in-cell Western (ICW) screening protocol (EGFR inhibition assay); type: cell-based; parameters: ICW 1 / ICW 2 / ICW Avg: unit not given here; settings: ICW assay; for ICW Avg: average of runs 1 and 2; for ICW 1: run 1; for ICW 2: run 2
# T1 construct: host or cells: A431
# How it was run: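 Serum-starved A431 cells (2 h) were pretreated with compound for 4 h at 37° C, then stimulated with EGF (10 ng/ml final, or 6.6 or 12.5 ng/ml in some runs) for 10 min. After formaldehyde fixation, phospho-EGFR (Tyr1173, or Tyr1045 in some runs) and total EGFR were detected by in-cell Western immunostaining.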
# MDBK line = experiment: MTT Cell Proliferation Assay, MDBK cells; type: cell-based, bovine; settings: MDBK cells; for IC50: Bos taurus, MDBK
# Text: as §1, §2, §3, §4, §5, §6, §7, §8, §9, §10, §11, §12
# [2] = A-431, A431 cells, first value of cell, read-out: MTT Assay IC50(A431/MDBK): A431
# [3] = second value of cell, read-out: MTT Assay IC50(A431/MDBK): MDBK
# T1 sequence (P00533 25-1210): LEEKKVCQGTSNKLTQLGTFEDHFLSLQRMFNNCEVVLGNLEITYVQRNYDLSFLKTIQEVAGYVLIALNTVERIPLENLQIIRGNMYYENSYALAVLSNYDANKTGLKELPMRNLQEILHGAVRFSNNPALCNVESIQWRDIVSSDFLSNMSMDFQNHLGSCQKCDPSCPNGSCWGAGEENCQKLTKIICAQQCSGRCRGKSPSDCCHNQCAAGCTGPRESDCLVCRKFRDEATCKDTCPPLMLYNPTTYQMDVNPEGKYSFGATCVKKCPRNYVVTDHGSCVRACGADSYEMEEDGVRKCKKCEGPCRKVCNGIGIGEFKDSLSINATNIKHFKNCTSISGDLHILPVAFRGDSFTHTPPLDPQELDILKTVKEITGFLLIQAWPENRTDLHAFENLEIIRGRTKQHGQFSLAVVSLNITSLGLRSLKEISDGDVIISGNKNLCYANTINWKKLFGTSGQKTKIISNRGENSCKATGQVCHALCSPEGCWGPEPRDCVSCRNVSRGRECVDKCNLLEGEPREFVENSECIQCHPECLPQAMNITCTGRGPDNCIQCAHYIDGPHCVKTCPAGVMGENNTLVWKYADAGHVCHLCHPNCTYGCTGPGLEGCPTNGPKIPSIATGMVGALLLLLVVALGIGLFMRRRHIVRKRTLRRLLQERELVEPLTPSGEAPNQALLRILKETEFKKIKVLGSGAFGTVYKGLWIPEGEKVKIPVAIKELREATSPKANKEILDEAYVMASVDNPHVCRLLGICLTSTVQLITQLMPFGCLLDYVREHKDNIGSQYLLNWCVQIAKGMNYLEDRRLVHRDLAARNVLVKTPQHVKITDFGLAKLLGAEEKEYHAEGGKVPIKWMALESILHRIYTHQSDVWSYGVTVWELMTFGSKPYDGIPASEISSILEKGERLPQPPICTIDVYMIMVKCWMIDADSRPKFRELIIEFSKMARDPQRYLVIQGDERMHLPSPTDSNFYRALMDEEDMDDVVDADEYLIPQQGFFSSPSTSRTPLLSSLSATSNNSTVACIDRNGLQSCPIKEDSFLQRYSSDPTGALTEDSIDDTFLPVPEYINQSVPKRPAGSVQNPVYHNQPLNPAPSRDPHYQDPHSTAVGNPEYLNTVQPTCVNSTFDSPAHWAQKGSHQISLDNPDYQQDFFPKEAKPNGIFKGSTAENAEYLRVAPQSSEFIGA
SMILES,"IC50 [1, 2]",MTT Assay IC50(A431/MDBK): ratio in parentheses [1],ICW Avg (EGFR),ICW 1 (EGFR),ICW 2 (EGFR),IC50 (MDBK line; [3]),MTT Assay IC50(A431/MDBK): MDBK (MDBK line; second value of cell),"IC50 ([1]; A-431, follow-up MTT, A431 cells, first value, read-out: MTT Follow-up: A431)","MTT Follow-up: ratio in parentheses ([1]; follow-up MTT, ratio MDBK/A431)","IC50 (MDBK line; follow-up MTT, second value, read-out: MTT Follow-up: MDBK)"
CCc1ccc2nc(Nc3ncc4c(n3)CC(c3cccc(Cl)c3)CC4=O)nc(C)c2c1 (stereo not shown) [11680 + TFA],21.9 µM,0.80,27.24,32.59,21.89,17.4 µM,,,,
Cc1cc2nc(Nc3ncc4c(n3)CC(c3cccs3)CC4=O)nc(C)c2cc1C (stereo not shown) [11681 + TFA],5.47 µM,0.75,29.86,30.46,29.26,4.08 µM,,,,
O=c1[nH]c(Nc2nc(-c3ccccc3)c3cc(Cl)ccc3n2)nc2ccccc12 [11706 + TFA],17.6 µM,1.45,34.32,37.65,30.99,25.4 µM,,,,
Cc1ccc(SCc2cc(=O)[nH]c(Nc3nc(C)c4cccc(C)c4n3)n2)cc1 [11707 + TFA],15.7 µM,,40.51,43.70,37.31,,non-convergent,,,
Cc1ccc2c(C)nc(Nc3nc(C)c(CCC(C)C)c(=O)[nH]3)nc2c1 [11712 + TFA],18.7 µM,0.92,39.53,32.96,46.11,17.3 µM,,,,
Cc1ccc(SCc2cc(=O)[nH]c(Nc3nc(C)c4cc(C)cc(C)c4n3)n2)cc1 [11727 + TFA],35.1 µM,0.46,31.05,37.00,25.09,16.1 µM,,,,
CCCCCc1c(C)nc(Nc2nc(C)c3ccc(C)cc3n2)[nH]c1=O [11730 + TFA],14.5 µM,0.69,38.91,47.15,30.67,10.1 µM,,,,
COc1ccc2nc(Nc3nc(C)c(Cc4cccc(Cl)c4)c(=O)[nH]3)nc(C)c2c1 [11742 + TFA],16.1 µM,,35.74,33.84,37.63,,non-convergent,,,
COc1ccccc1-c1cc(=O)[nH]c(Nc2nc(C)c3cc(C)c(C)cc3n2)n1 [11746 + TFA],33.5 µM,0.43,25.68,29.51,21.86,14.4 µM,,,,
Cc1cccc(Cc2c(C)nc(Nc3nc(C)c4cccc(C)c4n3)[nH]c2=O)c1 [11754 + TFA],5.58 µM,1.35,29.97,34.09,25.85,7.55 µM,,,,
O=c1cc(C(F)(F)F)[nH]c(Nc2nc(-c3ccccc3)c3cc(Cl)ccc3n2)n1 [11759 + TFA],14.2 µM,0.52,32.41,38.43,26.39,7.36 µM,,,,
CCc1ccc2c(C)nc(Nc3nc(C)c(CCC(C)C)c(=O)[nH]3)nc2c1 [11771 + TFA],18.2 µM,2.32,46.95,51.58,42.32,42.1 µM,,,,
COc1cccc2c(C)nc(Nc3nc(C)cc(=O)[nH]3)nc12 [11772 + TFA],9.75 µM,0.93,77.09,80.68,73.50,9.04 µM,,,,
CCCc1c(C)nc(Nc2nc(C)c3cccc(OC)c3n2)[nH]c1=O [11773 + TFA],39.4 µM,0.53,33.52,43.74,23.30,21 µM,,,,
Cc1ccc2c(C)nc(Nc3nc(CCC(C)C)cc(=O)[nH]3)nc2c1 [11783 + TFA],18.2 µM,0.82,60.19,66.95,53.44,15 µM,,,,
Cc1ccc2nc(Nc3nc(-c4ccccc4C)cc(=O)[nH]3)nc(C)c2c1 [11785 + TFA],10.3 µM,0.88,35.54,41.06,30.01,9.15 µM,,24.8 µM,1.04,25.9 µM
Cc1ccc2nc(Nc3nc(CCC(C)C)cc(=O)[nH]3)nc(C)c2c1 [11795 + TFA],26.8 µM,0.48,33.52,35.23,31.81,12.9 µM,,,,
COc1ccc(-c2cc(=O)[nH]c(Nc3nc(C)c4ccc(C)cc4n3)n2)cc1OC [11800 + TFA],6.71 µM,0.87,33.14,34.26,32.02,5.86 µM,,,,
CC1(C)CC(=O)c2cnc(Nc3nc(-c4ccccc4)c4cc(Cl)ccc4n3)nc2C1 [11807 + TFA],5.31 µM,3.35,25.37,30.73,20.02,17.8 µM,,,,
